Measurements from PubChem BioAssay (NCI).
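Cultured in 96-well plates, cells were exposed to test compound for 48 hours across five concentrations. Abbreviation: GI50, concentration required for 50% inhibition of growth. TGI marks complete inhibition of growth.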

What was measured:
Test in all cases: NCI-60 cell line screen, 48 h
SW-620 colon = test system: SW-620 colon
TK-10 renal = test system: TK-10 renal
M14 melanoma = test system: M14 melanoma
SF-268 CNS = test system: SF-268 CNS
SNB-19 CNS = test system: SNB-19 CNS
SK-OV-3 ovarian = test system: SK-OV-3 ovarian
PC-3 prostate = test system: PC-3 prostate
DU-145 prostate = test system: DU-145 prostate
ACHN renal = test system: ACHN renal
A498 renal = test system: A498 renal
HOP-92 NSCLC = test system: HOP-92 NSCLC
NCI-H460 lung = test system: NCI-H460 lung
SK-MEL-2 melanoma = test system: SK-MEL-2 melanoma
MCF7 breast = test system: MCF7 breast
MDA-MB-231 breast = test system: MDA-MB-231 breast
UACC-257 melanoma = test system: UACC-257 melanoma
SR leukemia = test system: SR leukemia
RPMI-8226 leukemia = test system: RPMI-8226 leukemia
OVCAR-3 ovarian = test system: OVCAR-3 ovarian
LOX IMVI melanoma = test system: LOX IMVI melanoma
NCI-H522 lung = test system: NCI-H522 lung
K-562 leukemia = test system: K-562 leukemia
HCT-116 colon = test system: HCT-116 colon
HL-60(TB) leukemia = test system: HL-60(TB) leukemia
UO-31 renal = test system: UO-31 renal
786-0 renal = test system: 786-0 renal
T-47D breast = test system: T-47D breast
COLO 205 colon = test system: COLO 205 colon
HS 578T breast = test system: HS 578T breast
MALME-3M melanoma = test system: MALME-3M melanoma
CAKI-1 renal = test system: CAKI-1 renal
SK-MEL-28 melanoma = test system: SK-MEL-28 melanoma
HCC-2998 colon = test system: HCC-2998 colon
U251 CNS = test system: U251 CNS
UACC-62 melanoma = test system: UACC-62 melanoma
RXF 393 renal = test system: RXF 393 renal
HCT-15 colon = test system: HCT-15 colon
CCRF-CEM leukemia = test system: CCRF-CEM leukemia
SN12C renal = test system: SN12C renal
SNB-75 CNS = test system: SNB-75 CNS
IGROV1 ovarian = test system: IGROV1 ovarian
SK-MEL-5 melanoma = test system: SK-MEL-5 melanoma
OVCAR-5 ovarian = test system: OVCAR-5 ovarian
NCI/ADR-RES ovarian = test system: NCI/ADR-RES ovarian
KM12 colon = test system: KM12 colon
MOLT-4 leukemia = test system: MOLT-4 leukemia
OVCAR-8 ovarian = test system: OVCAR-8 ovarian
HOP-62 NSCLC = test system: HOP-62 NSCLC
NCI-H23 lung = test system: NCI-H23 lung
NCI-H226 lung = test system: NCI-H226 lung
BT-549 breast = test system: BT-549 breast
A549 NSCLC = test system: A549 NSCLC
HT29 colon = test system: HT29 colon
MDA-MB-435 = test system: MDA-MB-435
OVCAR-4 ovarian = test system: OVCAR-4 ovarian
SF-539 CNS = test system: SF-539 CNS
SF-295 CNS = test system: SF-295 CNS

In the case of C[C@H](O)CNc1cc(-c2[nH]c3cccnc3c2-c2ccc(F)cc2)ccn1, the GI50 (SW-620 colon) is reported as over 25 µM, the TGI (SW-620 colon) is reported as over 25 µM and the GI50 (TK-10 renal) is reported as 10.3 µM. It also gave a TGI (TK-10 renal) of over 25 µM, a GI50 (M14 melanoma) of over 25 µM and a TGI (M14 melanoma) of over 25 µM. For the same compound, the GI50 (SF-268 CNS) was 17.3 µM, the TGI (SF-268 CNS) was over 25 µM and the GI50 (SNB-19 CNS) was 18.5 µM. The TGI (SNB-19 CNS) was over 25 µM, the GI50 (SK-OV-3 ovarian) was 13.1 µM and the TGI (SK-OV-3 ovarian) was over 25 µM. It also gave a GI50 (PC-3 prostate) of over 23 µM, a TGI (PC-3 prostate) of over 25 µM and a GI50 (DU-145 prostate) of 18.7 µM. It also gave a TGI (DU-145 prostate) of over 25 µM, a GI50 (ACHN renal) of 4.66 µM and a TGI (ACHN renal) of over 25 µM. The GI50 (A498 renal) was 4.19 µM, the TGI (A498 renal) was over 25 µM and the GI50 (HOP-92 NSCLC) was 1.59 µM. For the same compound, the TGI (HOP-92 NSCLC) was over 22.9 µM, the GI50 (NCI-H460 lung) was 8.43 µM and the TGI (NCI-H460 lung) was over 25 µM. For the same compound, the GI50 (SK-MEL-2 melanoma) was over 25 µM, the TGI (SK-MEL-2 melanoma) was over 25 µM and the GI50 (MCF7 breast) was 6.37 µM. The TGI (MCF7 breast) was over 25 µM, the GI50 (MDA-MB-231 breast) was 24.1 µM and the TGI (MDA-MB-231 breast) was over 25 µM. It also gave a GI50 (UACC-257 melanoma) of over 25 µM, a TGI (UACC-257 melanoma) of over 25 µM and a GI50 (SR leukemia) of 13.3 µM. It also gave a TGI (SR leukemia) of over 25 µM, a GI50 (RPMI-8226 leukemia) of over 17.1 µM and a TGI (RPMI-8226 leukemia) of over 25 µM. It also gave a GI50 (OVCAR-3 ovarian) of 22.2 µM, a TGI (OVCAR-3 ovarian) of over 25 µM and a GI50 (LOX IMVI melanoma) of 12.5 µM. For the same compound, the TGI (LOX IMVI melanoma) was over 25 µM, the GI50 (NCI-H522 lung) was over 25 µM and the TGI (NCI-H522 lung) was over 25 µM. For the same compound, the GI50 (K-562 leukemia) was over 23 µM, the TGI (K-562 leukemia) was over 25 µM and the GI50 (HCT-116 colon) was 13.2 µM. For the same compound, the TGI (HCT-116 colon) was over 25 µM, the GI50 (HL-60(TB) leukemia) was over 25 µM and the TGI (HL-60(TB) leukemia) was over 25 µM. It also gave a GI50 (UO-31 renal) of 4.08 µM, a TGI (UO-31 renal) of over 25 µM and a GI50 (786-0 renal) of 16.2 µM. For the same compound, the TGI (786-0 renal) was over 25 µM, the GI50 (T-47D breast) was 8.88 µM and the TGI (T-47D breast) was over 25 µM. It also gave a GI50 (COLO 205 colon) of 13.5 µM, a TGI (COLO 205 colon) of over 25 µM and a GI50 (HS 578T breast) of 15.8 µM. It also gave a TGI (HS 578T breast) of over 25 µM, a GI50 (MALME-3M melanoma) of over 14.4 µM and a TGI (MALME-3M melanoma) of over 25 µM. It also gave a GI50 (CAKI-1 renal) of 9.06 µM, a TGI (CAKI-1 renal) of over 25 µM and a GI50 (SK-MEL-28 melanoma) of over 25 µM. It also gave a TGI (SK-MEL-28 melanoma) of over 25 µM, a GI50 (HCC-2998 colon) of over 23.3 µM and a TGI (HCC-2998 colon) of over 25 µM. For the same compound, the GI50 (U251 CNS) was over 18.5 µM, the TGI (U251 CNS) was over 25 µM and the GI50 (UACC-62 melanoma) was 12.3 µM. It also gave a TGI (UACC-62 melanoma) of over 25 µM, a GI50 (RXF 393 renal) of 14.6 µM and a TGI (RXF 393 renal) of over 25 µM. For the same compound, the GI50 (HCT-15 colon) was 10.3 µM, the TGI (HCT-15 colon) was over 25 µM and the GI50 (CCRF-CEM leukemia) was 20.1 µM. For the same compound, the TGI (CCRF-CEM leukemia) was over 25 µM, the GI50 (SN12C renal) was 11.9 µM and the TGI (SN12C renal) was over 25 µM. The GI50 (SNB-75 CNS) was 11.8 µM, the TGI (SNB-75 CNS) was over 25 µM and the GI50 (IGROV1 ovarian) was 6.35 µM. For the same compound, the TGI (IGROV1 ovarian) was over 21.8 µM, the GI50 (SK-MEL-5 melanoma) was 10.3 µM and the TGI (SK-MEL-5 melanoma) was over 25 µM. It also gave a GI50 (OVCAR-5 ovarian) of over 25 µM, a TGI (OVCAR-5 ovarian) of over 25 µM and a GI50 (NCI/ADR-RES ovarian) of over 25 µM. The TGI (NCI/ADR-RES ovarian) was over 25 µM, the GI50 (KM12 colon) was 22.1 µM and the TGI (KM12 colon) was over 25 µM. For the same compound, the GI50 (MOLT-4 leukemia) was over 25 µM, the TGI (MOLT-4 leukemia) was over 25 µM and the GI50 (OVCAR-8 ovarian) was over 20.2 µM. For the same compound, the TGI (OVCAR-8 ovarian) was over 25 µM, the GI50 (HOP-62 NSCLC) was 20.1 µM and the TGI (HOP-62 NSCLC) was over 25 µM. It also gave a GI50 (NCI-H23 lung) of over 25 µM, a TGI (NCI-H23 lung) of over 25 µM and a GI50 (NCI-H226 lung) of 12.9 µM. For the same compound, the TGI (NCI-H226 lung) was over 25 µM, the GI50 (BT-549 breast) was 17.8 µM and the TGI (BT-549 breast) was over 25 µM. For the same compound, the GI50 (A549 NSCLC) was 13.4 µM, the TGI (A549 NSCLC) was over 25 µM and the GI50 (HT29 colon) was 10.1 µM. The TGI (HT29 colon) was over 25 µM, the GI50 (MDA-MB-435) was over 23 µM and the TGI (MDA-MB-435) was over 25 µM. For the same compound, the GI50 (OVCAR-4 ovarian) was over 25 µM, the TGI (OVCAR-4 ovarian) was over 25 µM and the GI50 (SF-539 CNS) was over 25 µM. For the same compound, the TGI (SF-539 CNS) was over 25 µM, the GI50 (SF-295 CNS) was over 12.4 µM and the TGI (SF-295 CNS) was over 25 µM.
